Key:
Type in all cases: cell-based, HIV-1
[1] = tested on: HIV strain IIIB (wild type); assay: Cellular anti-HIV assay in MT4 LTR-EGFP cells, strain IIIB (wild type); selectivity index versus cytotoxicity in mock-infected MT4 CMV-EGFP cells; settings: for EC50: Human immunodeficiency virus 1, 72 h, wild type HIV strain IIIB, MT4 LTR-EGFP cells, fluorescence, three days after infection, read-out: IIIB pEC50 (converted); for IIIB pSi: selectivity index = ratio of CC50 (mock-infected MT4 CMV-EGFP cells) to EC50 (IIIB), given as p value
Method: (§1) The antiviral activity of the compound of the present invention has been evaluated in the presence of wild type HIV and HIV mutants bearing mutations at the reverse transcriptase gene. The activity of the compounds is evaluated using a cellular assay which was performed according to the following procedure.
(§2) The human T-cell line MT4 is engineered with Green Fluorescent Protein (GFP) and an HIV-specific promoter, HIV-1 long terminal repeat (LTR). This cell line is designated MT4 LTR-EGFP, and can be used for the in vitro evaluation of anti-HIV activity of investigational compounds. In HIV-1 infected cells, the Tat protein is produced which upregulates the LTR promotor and finally leads to stimulation of the GFP reporter production, allowing to measure ongoing HIV-infection fluorometrically. Analogously, MT4 cells are engineered with GFP and the constitutional cytomegalovirus (CMV) promotor. This cell line is designated MT4 CMV-EGFP, and can be used for the in vitro evaluation of cytotoxicity of investigational compounds. In this cell line, GFP levels are comparably to those of infected MT4 LTR-EGFP cells. Cytotoxic investigational compounds reduce GFP levels of mock-infected MT4 CMV-EGFP cells.
(§3) Effective concentration values such as 50% effective concentration (EC50) can be determined and are usually expressed in μM. An EC50 value is defined as the concentration of test compound that reduces the fluorescence of HIV-infected cells by 50%. The 50% cytotoxic concentration (CC50 in μM) is defined as the concentration of test compound that reduces fluorescence of the mock-infected cells by 50%. The ratio of CC50 to EC50 is defined as the selectivity index (SI) and is an indication of the selectivity of the anti-HIV activity of the inhibitor. The ultimate monitoring of HIV-1 infection and cytotoxicity is done using a scanning microscope. Image analysis allows very sensitive detection of viral infection. Measurements are done before cell necrosis, which usually takes place about five days after infection, in particular measurements are performed three days after infection.
(§4) The columns IIIB, L100I, etc. in the table list the pEC50 values against various strains IIIB, L100I, etc.
Strain IIIB is wild type HIV strain

HIV strain L100I = assay: Cellular anti-HIV assay in MT4 LTR-EGFP cells, mutant L100I; settings: Human immunodeficiency virus 1, read-out: L100I pEC50 (converted)
Method: (§5) Because of the increasing emergence of drug resistant HIV strains, the present compounds were tested for their potency against clinically isolated HIV strains harbouring several mutations. These mutations are associated with resistance to reverse transcriptase inhibitors and result in viruses that show various degrees of phenotypic cross-resistance to the currently commercially available drugs such as for instance AZT and delavirdine.
as §1, §2, §3, §4

HIV strain L100I + K103N = assay: Cellular anti-HIV assay in MT4 LTR-EGFP cells, mutant L100I + K103N; settings: Human immunodeficiency virus 1, 72 h, read-out: L100I + K103N pEC50 (converted)
Method: as §5, §1, §2, §3, §4

HIV strain K103N = assay: Cellular anti-HIV assay in MT4 LTR-EGFP cells, mutant K103N; settings: Human immunodeficiency virus 1, read-out: K103N pEC50 (converted)
Method: as §5, §1, §2, §3, §4

HIV strain K103N + Y181C = assay: Cellular anti-HIV assay in MT4 LTR-EGFP cells, mutant K103N + Y181C; settings: Human immunodeficiency virus 1, 72 h, read-out: K103N + Y181C pEC50 (converted)
Method: as §5, §1, §2, §3, §4

HIV strain Y181C = assay: Cellular anti-HIV assay in MT4 LTR-EGFP cells, mutant Y181C; settings: Human immunodeficiency virus 1, read-out: Y181C pEC50 (converted)
Method: as §5, §1, §2, §3, §4

HIV strain Y188L = assay: Cellular anti-HIV assay in MT4 LTR-EGFP cells, mutant Y188L; settings: Human immunodeficiency virus 1, read-out: Y188L pEC50 (converted)
Method: as §5, §1, §2, §3, §4

HIV strain MDR = assay: Cellular anti-HIV assay in MT4 LTR-EGFP cells, MDR strain; settings: Human immunodeficiency virus 1, read-out: MDR pEC50 (converted)
Method: as §5, §1, §2, §3, §4
MDR refers to a strain that contains mutations L100I, K103N, Y181C, E138G, V1791, L2214F, V278V/I and A327A/V in HIV reverse transcriptase.

SMILES | EC50 [1] [nM] | IIIB pSi [1] | EC50 (HIV strain L100I) [nM] | EC50 (HIV strain L100I + K103N) [nM] | EC50 (HIV strain K103N) [nM] | EC50 (HIV strain K103N + Y181C) [nM] | EC50 (HIV strain Y181C) [nM] | EC50 (HIV strain Y188L) [nM] | EC50 (HIV strain MDR) [nM]
Cc1cc(/C=C/C#N)cc(C)c1Nc1nc(Nc2ccc(C#N)cc2)ncc1C(=O)Nc1cccc(Cl)c1 [Compound 16] | 25.1 | 2.60 | 79.4 | 501 | 3.98 | 316 | 200 | 501 | 7940
Cc1cc(/C=C/C#N)cc(C)c1Nc1nc(Nc2ccc(C#N)cc2)ncc1C(=O)NCc1ccco1 [Compound 19] | 3.98 | 3.60 | 3.98 | 50.1 | 3.98 | 20 | 20 | 20 | 1000
CONC(=O)c1cnc(Nc2ccc(C#N)cc2)nc1Nc1c(C)cc(/C=C/C#N)cc1C [Compound 23] | 3.98 | >3.80 | 5.01 | 12.6 |  | 7.94 | 15.8 | 15.8 | 794
Cc1ccc(CNC(=O)c2cnc(Nc3ccc(C#N)cc3)nc2Nc2c(C)cc(/C=C/C#N)cc2C)o1 [Compound 24] | 15.8 | 3.00 | 25.1 | 79.4 |  | 50.1 | 25.1 | 79.4 | 5010
COc1ccccc1CNC(=O)c1cnc(Nc2ccc(C#N)cc2)nc1Nc1c(C)cc(/C=C/C#N)cc1C [Compound 27] | 6.31 | >3.60 | 50.1 |  | 7.94 | 39.8 | 39.8 | 79.4 | 3160
Cc1cccc(CNC(=O)c2cnc(Nc3ccc(C#N)cc3)nc2Nc2c(C)cc(/C=C/C#N)cc2C)c1 [Compound 28] | 15.8 | 3.10 | 50.1 |  | 15.8 | 50.1 | 79.4 | 126 | 7940
Cc1cc(/C=C/C#N)cc(C)c1Nc1nc(Nc2ccc(C#N)cc2)ncc1C(=O)NCCc1ccccc1 [Compound 31] | 15.8 | 3.10 | 31.6 |  | 15.8 | 50.1 | 63.1 | 79.4 | 10000
Cc1cc(/C=C/C#N)cc(C)c1Nc1nc(Nc2ccc(C#N)cc2)ncc1C(=O)NCCc1cccc(F)c1 [Compound 32] | 12.6 | 3.10 | 39.8 |  | 15.8 | 79.4 | 79.4 | 100 | 10000
CCOC(=O)CCCNC(=O)c1cnc(Nc2ccc(C#N)cc2)nc1Nc1c(C)cc(/C=C/C#N)cc1C [Compound 45] | 2.51 | >4.00 | 6.31 |  | 2 | 15.8 |  | 20 | 1000
Cc1cc(/C=C/C#N)cc(C)c1Nc1nc(Nc2ccc(C#N)cc2)ncc1C(=O)NCCC#N [Compound 46] | 7.94 | >3.50 | 7.94 | 15.8 | 3.98 | 39.8 |  | 31.6 | 158
Cc1cc(/C=C/C#N)cc(C)c1Oc1nc(Nc2ccc(C#N)cc2)ncc1C(=O)NCc1ccncc1 [Compound 58] | 2 | >4.10 |  | 316 | 6.31 | 100 |  | 158 | 3160

— US8933089B2, “HIV inhibiting 5-amido substituted pyrimidines” (Janssen R & D Ireland, priority 2006, dated 2015)
